Like-named read-outs stand apart in the source and are kept apart here. Positions of bridges follow the written chain, without caps; N, C: chain ends. No end group written: not given here.

The values below come from patent US7442375B2, “Compositions of beta-defensin inducing agents” (Case Western Reserve University, priority 2002, dated 2008).

Test [1] deals with hBD-2 mRNA. The settings on record: 1.7 mM in culture medium, epidermal cells; cited from earlier work.
The subject of test [2] is hBD-3 mRNA. The settings on record: 1.7 mM in culture medium, epidermal cells; cited from earlier work.
Test [3] relates to epithelial beta defensin genes. The note with it: appears to involve NF-kappaB/rel; cited from earlier work.
In another test the test system is hBD-1 mRNA. The test is described as follows: Real-time RT-PCR assay to quantify hBD mRNA in NHOEC. The test is classed as cell-based. The settings on record: normal human oral epithelium and cells; positive control of FIG. 3. Here is the method:
(§1) NHOEC monolayers were exposed to X4 HIV-1 strains B-HXB2 and B-NL4-3 or R5 strains B-93US142 and B-92US660 at an MOI of 0.01 infectious unit/cell. After 48 h, hBD-1, -2, and -3 mRNA expression was determined by real-time PCR. (a) Standard curves generated using the relationship of known number of input templates to the cycle threshold (i.e., PCR cycle number at which the mean fluorescence increases to 10 SD above baseline). Cycle threshold is directly proportional to the log of the input copy equivalents. Linear dynamic ranges and regression values are indicated. (b) Quantification of hBD mRNA in the presence and absence of HIV-1. (c) Comparison of hBD expression relative to the uninfected culture. PMA, phorbol myristate acetate, positive control. Results are representative of three independent experiments.
(§2) RNA was extracted from NHOEC monolayers post HIV-1 challenge [multiplicity of infection (MOI), 0.01 infectious unit/cell] using TRIzol according to the manufacturer's protocol (Invitrogen Life Technologies, Carlsbad, Calif., USA). Human keratin 5 RNA was used to normalize RNA content in each preparation. Intron spanning primers used and PCR conditions for these reactions have been described previously [Krisanaprakorkit et al., 1998 and 2000; Harder et al.]. Each 25-μl PCR mixture consisted of 125 ng RNA, primers (0.4 μM each), 0.4 mM dNTPs, 5 mM MgCl2, a mixture of reverse transcriptase and Taq DNA polymerase, 1 3 PCR buffer, RNase inhibitor (5 U), and SYBR Green dye diluted 1:2500 (Sigma, St. Louis, Mo., USA) as described [Weber et al.]. Standard curves were constructed using RNA generated by transcribing hBD-1, -2, or -3 plasmids using the RiboProbe in vitro transcription system (Promega, Madison, Wis., USA). Concentration of mRNAs was determined by spectrometry at 260 nm. […]
(§3) NHOEC monolayers were challenged with four different HIV-1 strains representing both viral bio-phenotypes (i.e., SI/X4, B-HXB2 and B-NL4-3; NSI/R5, B-93US142 and B-92US660) Forty-eight hours postinfection, hBD-1, -2, and -3 mRNA expression was measured by real-time PCR. […]
(In qPCR the cycle at which signal appears reflects the starting amount.)

Test [4] has as its system hBD-3 mRNA. The description is as above. The note with it: normal human oral epithelium and cells; positive control of FIG. 3. The test is classed as cell-based. Here is the method:
as §1, §2, §3

Test [5] concerns hBD-2 mRNA. The test is described as above. Type of test: cell-based. The note with it: normal human oral epithelium and cells; positive control of FIG. 3. Here is the method:
as §1, §2, §3

The test system of the next test is HIV-1 X4 B-HXB2. The test is classed as cell-based. Here is the method: (§4) HIV-1 strains (X4 HXB2 and R5 93US142) were incubated in 10 mM PB with increasing concentrations of hBD and used to infect GHOST X4/R5 cells. (a) Qualitative determination of HIV-1 infection, measured by GFP fluorescence, in the absence (−C) and presence (+C) of virus preincubated in 10 mM PB. (b) Anti-HIV-1 activity of hBD in GHOST X4/R5 cells using fluorescence microscopy. (c) Anti-HIV-1 activity of hBD measured by RT activity in cell-free culture supernatant, relative to the positive control (i.e., HIV-1 infection in the absence of hBD). (d) Antiretroviral activity of hBD against CXCR4- and CCR5-tropic HIV-1 strains in three different environments: DMEM+10% FBS (complete medium); DMEM alone (Medium no FBS); 10 mM PB. Viruses were incubated with 20 μg/ml of each hBD for 1 h in each condition and used to infect CEM X4/R5 cells as described. Results are representative of three independent experiments.
(§5) HIV-1 isolates were incubated with increasing concentrations (5-40 μg/ml) of hBD-1, -2, and -3, in three different conditions: high salt complete medium (RPMI-1640 or DMEM supplemented with 10% fetal bovine serum, FBS); high salt medium in the absence of FBS; or low salt medium (10 mM phosphate buffer), 37° C. for 1 h. Respective mixtures were used to infect PBMC, Ghost X4/R5 or CEM X4/R5 cells at an MOI of […]. After 2 h incubation at 37° C., 5% CO2, cells were washed three times with phosphate-buffered saline (PBS) and cultured in complete medium for 48 h. In the case of Ghost X4/R5 cells, these were washed, resuspended in PBS, and analyzed by fluorescence microscopy for GFP expression as described [Morner et al.]. Cell-free supernatants from PBMC, Ghost X4/R5 and CEM X4/R5 cultures were used to monitor infectivity by the reverse transcriptase (RT) assay [Quinones-Mateu et al.]. The 50% inhibitory concentration (IC50) of each hBD was determined using X4 or R5 HIV-1 isolates. Viruses (0.01 MOI) were incubated with increasing concentrations of hBD-1, -2, and 3 (up to 40 µg/ml) in low salt medium for 1 h and used to infect CEM X4/R5 cells. After 2 h incubation at 37° C., 5% CO2, cells were washed twice with PBS and cultured in complete medium. Supernatant samples were removed on day 5 post-infection and virus production was measured using […] the RT assay [Id.]. Cytotoxicity of hBD was quantified by determining the number of viable cells using a tetrazolium-based colorimetric (MTT) assay [Pauwels et al.].
(§6) Since the antibacterial activity of beta-defensins is sensitive to high salt and serum concentrations, the anti-HIV-1 activity of hBD was initially evaluated in a low salt, serum free environment, mimicking oral mucosal conditions [Mandel et al.]. Two HIV-1 isolates (X4 B-HXB2 and R5 B-93US142) were preincubated for 1 h with increasing concentrations of recombinant hBD-1, -2, and -3, in 10 mM phosphate buffer (PB). GHOST CCR5/CXCR4 cells were then exposed to the mixtures for 48 h in complete medium. […] When CXCR4- and CCR5-tropic HIV-1 strains were preincubated with beta-defensins in high salt medium (DMEM) supplemented with 10% FBS, no antiviral effect was detected (FIG. 4d). However, preincubation in DMEM without FBS inhibited replication of X4, but not R5, HIV-1 isolates (FIG. 4d). Under low salt conditions (i.e., 10 mM PB, no FBS) the 50% inhibitory concentration for both agents against X4 and R5 viruses ranged from 9 to 19 μg/ml and 20 to 40 μg/ml, respectively.

The next test deals with HIV-1 R5 B-93US142. Type of test: cell-based. Here is the method:
as §4, §5, §6

For the next test, the target named is CXCR4 (Homo sapiens, UniProt P61073). The experiment in a line: Flow cytometric analysis of co-receptor surface expression on unstimulated PBMC. Set-up: endogenous in cells; host or cells: unstimulated peripheral blood mononuclear cells (PBMC). The note with it: 30 μg/ml, 3 h, high salt medium without FBS. Type of test: cell-based. Here is the method:
(§7) Unstimulated PBMC were treated for 3 hrs with hBD-1, -2, or -3 (30 μg/ml) in DMEM (high salt) in the absence of FBS. The CXCR4 natural ligand SDF-1AE (2 μg/ml) and the CCR5 antagonist PSC-RANTES (100 nM) were used as positive controls. CXCR4 and CCR5 surface expression was calculated using known ratios of QuantiBRITE-PE beads (Becton Dickenson) by flow cytometry. Results are the means of seven experiments±SD.
(§8) Unstimulated PBMC were treated with 30 μg/ml hBD-1, -2, or -3 in high salt medium (RPMI-1640) in the absence of FBS, 3 h. The CXCR4 natural ligand SDF-1α (R&D Systems, Minneapolis, Minn., USA) and the CCR5 antagonist PSC-RANTES were used as controls. Cells were incubated with peridinin chlorophyll protein-conjugated anti-human CD4 antibody, and either phycoerythrin (PE)-conjugated anti-human CXCR4 antibody, PE-conjugated anti-human CCR5 antibody, or PE-conjugated mouse immunoglobulin G2a (IgG2a), isotype standard (PharmMingen, San Diego, Calif., USA) [Salkowitz et al.]. Fluorescence intensity was reported as receptor density by quantitative flow cytometry (FACSCaliber; Becton Dickenson, San Jose, Calif., USA) [Iyer et al.]. Data were analyzed using CELLQuest software (Becton Dickenson).
(§9) Surface expression of CXCR4 was decreased by 51%±18% and 52%±20% (SD) respectively after incubation with 30 μg/ml of hBD-2 or hBD-3 (FIG. 5).
A general note: A flow cytometer gives signals particle by particle.

The next test deals with CCR5 (Homo sapiens, UniProt P51681). The test is described as above. The test is classed as cell-based. Set-up: endogenous in cells; host or cells: unstimulated peripheral blood mononuclear cells (PBMC). The settings on record: 30 μg/ml, 3 h, high salt medium without FBS. Here is the method:
as §7, §8, §9

Setting [6] is: 20 μg/ml, preincubation in 10 mM PB.
The mark [7] stands for this setting: virus preincubated 1 h with hBD in 10 mM PB, GHOST cells 48 h, GFP fluorescence.

Sequence of CCR5 (P51681 whole entry): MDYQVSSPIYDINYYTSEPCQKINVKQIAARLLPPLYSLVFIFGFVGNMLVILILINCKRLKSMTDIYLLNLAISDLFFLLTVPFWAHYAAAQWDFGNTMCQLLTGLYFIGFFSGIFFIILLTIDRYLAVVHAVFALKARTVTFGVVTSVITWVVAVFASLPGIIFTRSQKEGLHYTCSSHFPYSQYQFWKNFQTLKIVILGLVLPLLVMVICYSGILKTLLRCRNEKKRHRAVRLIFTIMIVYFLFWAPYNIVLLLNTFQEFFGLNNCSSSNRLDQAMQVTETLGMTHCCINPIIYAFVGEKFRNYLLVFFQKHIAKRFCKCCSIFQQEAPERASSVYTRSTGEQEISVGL
Sequence of CXCR4 (P61073 whole entry): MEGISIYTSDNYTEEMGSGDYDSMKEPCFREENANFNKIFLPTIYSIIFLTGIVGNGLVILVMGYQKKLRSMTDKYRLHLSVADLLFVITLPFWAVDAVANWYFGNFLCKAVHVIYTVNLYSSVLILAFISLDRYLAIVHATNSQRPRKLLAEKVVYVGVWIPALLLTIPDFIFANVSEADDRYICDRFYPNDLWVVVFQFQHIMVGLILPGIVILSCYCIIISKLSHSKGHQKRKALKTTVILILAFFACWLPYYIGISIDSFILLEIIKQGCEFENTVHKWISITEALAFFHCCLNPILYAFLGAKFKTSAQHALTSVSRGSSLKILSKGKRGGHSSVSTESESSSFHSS

In the case of `[Ca+2]` [calcium], in the test on hBD-2 mRNA [1], the “HBD-2 mRNA expression” value is on record as “sufficient to induce”. For the same compound, the “HBD-3 mRNA expression” value with hBD-3 mRNA [2] is reported as “sufficient to induce”.
Regarding `CC[C@H](C)[C@H](N)C(=O)O` [isoleucine-1], in [3], the “transcription of epithelial beta defensin genes” value is on record as “can activate transcription”.
On to `CCCCCCCCCCCCCC(=O)O[C@@H]1[C@@H](C)[C@@]2(O)[C@@H](C=C(CO)C[C@]3(O)C(=O)C(C)=C[C@@H]23)[C@@H]2C(C)(C)[C@]12OC(C)=O` [phorbol myristate acetate], for which, in the test with hBD-1 mRNA, the “HBD-1 mRNA expression” value is listed as “not”. The “HBD-3 mRNA expression” value with hBD-3 mRNA [4] was “induces”. Moreover, in the test with hBD-2 mRNA [5], the “HBD-2 mRNA expression” value is given as “induces”.
As to “GIGDPVTCLKSGAICHPVFCPRRYKQIGTCGLPGTKCCKKP (disulfide 8-37, 15-30, 20-38) [hBD-2]”, the “inhibition (RT activity relative to positive control)” value in the test on HIV-1 X4 B-HXB2 (setting [6]) amounted to 61%; in the test with HIV-1 R5 B-93US142 (setting [6]), 15%.
Consider “hBD-1: Recombinant human β-defensin 1 produced from infection of Sf21 cells with baculovirus constructs (DHYNCVSSGGQCLYSACPIFTKIQGTCYRGKAKCCK; ends and bridges not checked; cysteine pairing not given here; UniProt P60022 33-68, looked up)”, for which the anti-HIV-1 activity entry with HIV-1 X4 B-HXB2 (setting [7]) and in the test with HIV-1 R5 B-93US142 (setting [7]) was “no effect” in each case. In addition, the “effect on surface expression of CXCR4” value in the test with CXCR4 was “did not affect”. For the same compound, in the test with CCR5, the “effect on CCR5 expression” value was “not altered”.
